Legend:
[1] = tested on: A549; test: Cytotoxicity against human A549 cells after 14 hrs by CCK-8 assay; type: functional, cell-based; conditions: A549, 14 h
[2] = tested on: HeLa; test: Cytotoxicity against human HeLa cells after 14 hrs by CCK-8 assay; type: functional, cell-based
[3] = tested on: MCF7; test: Cytotoxicity against human MCF7 cells after 14 hrs by CCK-8 assay; type: functional, cell-based; conditions: MCF7, 14 h
[4] = tested on: LoVo; test: Cytotoxicity against human LoVo cells after 14 hrs by CCK-8 assay; type: functional, cell-based
[5] = Cytotoxicity against human PNT2 cells at 8.6 to 2200 uM after 14 hrs by CCK-8 assay; type: cell-based; conditions: pnt2, 14 h
[6] = tested on: LoVo; test: Induction of apoptosis in human LoVo cells assessed as viable cells at 17 uM after 4 hrs by FITC Annexin-V/propidium iodide staining-based flow cytometry (reference value: 79.50%); type: functional; conditions: read-out: Activity
[7] = tested on: LoVo; test: Induction of apoptosis in human LoVo cells assessed as viable cells at 137 uM after 4 hrs by FITC Annexin-V/propidium iodide staining-based flow cytometry (reference value: 79.50%); type: functional; conditions: read-out: Activity
[8] = tested on: LoVo; test: Induction of apoptosis in human LoVo cells assessed as apoptotic cells at 17 uM after 4 hrs by FITC Annexin-V/propidium iodide staining-based flow cytometry (reference value: 20.50%); type: functional
[9] = tested on: LoVo; test: Induction of apoptosis in human LoVo cells assessed as apoptotic cells at 137 uM after 4 hrs by FITC Annexin-V/propidium iodide staining-based flow cytometry (reference value: 20.50%); type: functional
[10] = tested on: A549; test: Induction of apoptosis in human A549 cells assessed as viable cells at 8.6 uM after 4 hrs by FITC Annexin-V/propidium iodide staining-based flow cytometry (reference value: 84.40%); type: functional; conditions: A549, 4 h, read-out: Activity
[11] = tested on: A549; test: Induction of apoptosis in human A549 cells assessed as viable cells at 69 uM after 4 hrs by FITC Annexin-V/propidium iodide staining-based flow cytometry (reference value: 84.40%); type: functional; conditions: A549, 4 h, read-out: Activity
[12] = tested on: A549; test: Induction of apoptosis in human A549 cells assessed as apoptotic cells at 8.6 uM after 4 hrs by FITC Annexin-V/propidium iodide staining-based flow cytometry (reference value: 15.60%); type: functional
[13] = tested on: A549; test: Induction of apoptosis in human A549 cells assessed as apoptotic cells at 69 uM after 4 hrs by FITC Annexin-V/propidium iodide staining-based flow cytometry (reference value: 15.60%); type: functional
[14] = tested on: MCF7; test: Induction of apoptosis in human MCF7 cells assessed as viable cells at 4.3 uM after 4 hrs by FITC Annexin-V/propidium iodide staining-based flow cytometry (reference value: 70.40%); type: functional; conditions: MCF7, 4 h, read-out: Activity
[15] = tested on: MCF7; test: Induction of apoptosis in human MCF7 cells assessed as viable cells at 34 uM after 4 hrs by FITC Annexin-V/propidium iodide staining-based flow cytometry (reference value: 70.40%); type: functional; conditions: MCF7, 4 h, read-out: Activity
[16] = tested on: MCF7; test: Induction of apoptosis in human MCF7 cells assessed as apoptotic cells at 4.3 uM after 4 hrs by FITC Annexin-V/propidium iodide staining-based flow cytometry (reference value: 29.60%); type: functional
[17] = tested on: MCF7; test: Induction of apoptosis in human MCF7 cells assessed as apoptotic cells at 34 uM after 4 hrs by FITC Annexin-V/propidium iodide staining-based flow cytometry (reference value: 29.60%); type: functional
[18] = tested on: HeLa; test: Induction of apoptosis in human HeLa cells assessed as viable cells at 8.6 uM after 4 hrs by FITC Annexin-V/propidium iodide staining-based flow cytometry (reference value: 87.00%); type: functional; conditions: read-out: Activity
[19] = tested on: HeLa; test: Induction of apoptosis in human HeLa cells assessed as viable cells at 69 uM after 4 hrs by FITC Annexin-V/propidium iodide staining-based flow cytometry (reference value: 87.00%); type: functional; conditions: read-out: Activity
[20] = tested on: HeLa; test: Induction of apoptosis in human HeLa cells assessed as apoptotic cells at 8.6 uM after 4 hrs by FITC Annexin-V/propidium iodide staining-based flow cytometry (reference value: 13.00%); type: functional
[21] = tested on: HeLa; test: Induction of apoptosis in human HeLa cells assessed as apoptotic cells at 69 uM after 4 hrs by FITC Annexin-V/propidium iodide staining-based flow cytometry (reference value: 13.00%); type: functional
[22] = Lipophilicity, log P of the compound; type: physicochemical; conditions: octanol/water
[23] = tested on: LoVo; test: Induction of apoptosis in human LoVo cells assessed as viable cells at 69 uM after 4 hrs by FITC Annexin-V/propidium iodide staining-based flow cytometry (reference value: 79.50%); type: functional; conditions: read-out: Activity
[24] = tested on: LoVo; test: Induction of apoptosis in human LoVo cells assessed as viable cells at 550 uM after 4 hrs by FITC Annexin-V/propidium iodide staining-based flow cytometry (reference value: 79.50%); type: functional; conditions: read-out: Activity
[25] = tested on: LoVo; test: Induction of apoptosis in human LoVo cells assessed as apoptotic cells at 69 uM after 4 hrs by FITC Annexin-V/propidium iodide staining-based flow cytometry (reference value: 20.50%); type: functional
[26] = tested on: LoVo; test: Induction of apoptosis in human LoVo cells assessed as apoptotic cells at 550 uM after 4 hrs by FITC Annexin-V/propidium iodide staining-based flow cytometry (reference value: 20.50%); type: functional
[27] = tested on: A549; test: Induction of apoptosis in human A549 cells assessed as viable cells at 550 uM after 4 hrs by FITC Annexin-V/propidium iodide staining-based flow cytometry (reference value: 84.40%); type: functional; conditions: A549, 4 h, read-out: Activity
[28] = tested on: A549; test: Induction of apoptosis in human A549 cells assessed as apoptotic cells at 550 uM after 4 hrs by FITC Annexin-V/propidium iodide staining-based flow cytometry (reference value: 15.60%); type: functional
[29] = tested on: MCF7; test: Induction of apoptosis in human MCF7 cells assessed as viable cells at 275 uM after 4 hrs by FITC Annexin-V/propidium iodide staining-based flow cytometry (reference value: 70.40%); type: functional; conditions: MCF7, 4 h, read-out: Activity
[30] = tested on: MCF7; test: Induction of apoptosis in human MCF7 cells assessed as apoptotic cells at 275 uM after 4 hrs by FITC Annexin-V/propidium iodide staining-based flow cytometry (reference value: 29.60%); type: functional
[31] = tested on: HeLa; test: Induction of apoptosis in human HeLa cells assessed as viable cells at 550 uM after 4 hrs by FITC Annexin-V/propidium iodide staining-based flow cytometry (reference value: 87.00%); type: functional; conditions: read-out: Activity
[32] = tested on: HeLa; test: Induction of apoptosis in human HeLa cells assessed as apoptotic cells at 550 uM after 4 hrs by FITC Annexin-V/propidium iodide staining-based flow cytometry (reference value: 13.00%); type: functional

Row | SMILES | IC50 [1] [µM] | IC50 [2] [µM] | IC50 [3] [µM] | IC50 [4] [µM] | Activity [5] [%] | viability at 69 µM [11] [%] | Activity [13] [%] | viability at 34 µM [15] [%] | Activity [17] [%] | viability at 69 µM [19] [%] | Activity [21] [%] | logP [22] | other results
1 | CC(=O)OC[C@H]1O[C@@H](S[C@H]2CC(=O)[C@@H]3OC[C@H]2O3)[C@H](OC(C)=O)[C@@H](OC(C)=O)[C@@H]1OC(C)=O | 119 | 91.4 | 47.1 | 166 | 10 | 75.8 | 24.2 | 68.8 | 31.25 | 63.1 | 36.9 | -1.13 | viability at 17 µM [6]: 72.5%; viability at 137 µM [7]: 69.7%; Activity [8]: 27.55%; Activity [9]: 30.3%; viability at 8.6 µM [10]: 76.4%; Activity [12]: 23.6%; viability at 4.3 µM [14]: 63.1%; Activity [16]: 36.9%; viability at 8.6 µM [18]: 80%; Activity [20]: 20%
2 | O=C1C[C@H](S[C@@H]2O[C@H](CO)[C@@H](O)[C@H](O)[C@H]2O)[C@H]2CO[C@@H]1O2 | 692 | 1080 | 366 | 772 | 10 | 70.3 | 29.7 | 75.1 | 24.9 | 82.6 | 17.4 | -2.05 | viability at 69 µM [23]: 71%; viability at 550 µM [24]: 62.4%; Activity [25]: 29%; Activity [26]: 37.65%; viability at 550 µM [27]: 74.3%; Activity [28]: 25.7%; viability at 275 µM [29]: 26.4%; Activity [30]: 73.6%; viability at 550 µM [31]: 67.2%; Activity [32]: 32.8%
